Experiment in all cases: DTP human tumour cell line panel, 48 h
Experiment [1] deals with NCI-H460.
Experiment [2] deals with SF-268.
The test system of experiment [3] is CCRF-CEM.
Experiment [4] relates to SR.
The test system of experiment [5] is OVCAR-4.
Experiment [6] concerns IGROV-1.
Experiment [7] has as its system HOP-92.
Experiment [8] deals with HCT-15.
The subject of experiment [9] is SF-539.
The subject of experiment [10] is HOP-62.
For experiment [11], the system named is OVCAR-8.
The test system of experiment [12] is HCC 2998.
Experiment [13] concerns SNB-75.
The subject of experiment [14] is A549.
Experiment [15] concerns T47D.
The subject of experiment [16] is SK-OV-3.
The subject of experiment [17] is RPMI-8226.
In experiment [18] the test system is NCI-H23.
For experiment [19], the system named is A498.

Molecules are shown by their SMILES.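 Tested at 5 concentrations; 48 h exposure; 96-well plates; endpoints linearly interpolated, else capped at highest concentration. GI50 = concentration required for 50% inhibition of growth.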 Active and inactive are the calls of the source. No stated cut-off is given here; in the data, active = GI50 up to about 1.1 µM and inactive = higher.

A word on the GI50: it is the concentration giving 50% growth inhibition. In the case of `Cc1cc(NS(=O)(=O)c2ccc(NC(NC(=O)OC(C)C)(C(F)(F)F)C(F)(F)F)cc2)nc(C)n1`, the GI50 in [1], in experiment [2], in experiment [3], in [4], in [5] and in [6] was > 100 µM (inactive) each time. The GI50 in experiment [7] was > 100 µM (inactive); in experiment [8] it was over 100 µM; in [9], > 100 µM (inactive); in experiment [10], > 100 µM (inactive); in [11], > 100 µM (inactive); in [12] it was > 100 µM (inactive). Also, the GI50 is > 100 µM (inactive) in experiment [13]; > 100 µM (inactive) in experiment [14]; 60.7 µM (inactive) in experiment [15]; > 100 µM (inactive) in experiment [16]; > 100 µM (inactive) in experiment [17]; > 100 µM (inactive) in [18]. The GI50 in experiment [19] is > 100 µM (inactive).

For the molecule `Cc1ccc2nc3[nH]nc(N)c3nc2c1`, the GI50 in experiment [1] is > 100 µM (inactive); in experiment [2], > 100 µM (inactive); in experiment [3], > 100 µM (inactive); in experiment [4], > 100 µM (inactive); in [5] it was > 100 µM (inactive); in experiment [6], 37 µM (inactive). In addition, the GI50 in experiment [7] is 87.1 µM (inactive); in experiment [8] it was 91 µM; in [9], > 100 µM (inactive); in experiment [10], > 100 µM (inactive); in [11], > 100 µM (inactive); in experiment [12], > 100 µM (inactive). Moreover, the GI50 was 64 µM (inactive) in experiment [13]; > 100 µM (inactive) in [14]; 65.3 µM (inactive) in experiment [15]; > 100 µM (inactive) in experiment [16]; 72.6 µM (inactive) in [17]; > 100 µM (inactive) in [18]. The GI50 in experiment [19] was 85.3 µM (inactive).

With `COc1ccc(Oc2nc3cc(C(F)(F)F)ccc3nc2C(C)C)cc1`, the GI50 in experiment [1] was 23.2 µM (inactive); in experiment [2] it was 32.7 µM (inactive); in experiment [3], 39.6 µM (inactive); in experiment [4], 16.7 µM (inactive); in [5], 34.7 µM (inactive); in experiment [6], 23.3 µM (inactive). Moreover, the GI50 is 17.2 µM (inactive) in [7]; 23.8 µM in experiment [8]; 41.5 µM (inactive) in [9]; 40.4 µM (inactive) in [10]; 25.2 µM (inactive) in [11]; 20.1 µM (inactive) in experiment [12]. Moreover, the GI50 in experiment [13] was 25.4 µM (inactive); in experiment [14], 31.1 µM (inactive); in experiment [15] it was 15.1 µM (inactive); in [16] it was 38.7 µM (inactive); in experiment [17], 19.4 µM (inactive); in [18], 21 µM (inactive). In experiment [19], the GI50 was 20 µM (inactive).

Regarding `O=C(CC(Cc1ccccc1)c1ccc(Oc2ccccc2)cc1)Nc1cccc(Cl)c1` (stereo not given), the GI50 in experiment [1] was 3.83 µM (inactive); in experiment [2], 19.2 µM (inactive); in [3], 3.49 µM (inactive); in [4], 4.94 µM (inactive); in experiment [5], 6.03 µM (inactive); in experiment [6], 2.9 µM (inactive). Besides, the GI50 in [7] was 1.9 µM (inactive); in experiment [8], 3.64 µM; in experiment [9] it was 26.1 µM (inactive); in experiment [10], 3.83 µM (inactive); in experiment [11], 3.96 µM (inactive); in experiment [12] it was 3.27 µM (inactive). The GI50 was 6.73 µM (inactive) in experiment [13]; 3.9 µM (inactive) in [14]; 2.92 µM (inactive) in experiment [15]; 5.46 µM (inactive) in [16]; 3.72 µM (inactive) in [17]; 3.35 µM (inactive) in experiment [18]. Moreover, the GI50 in experiment [19] is 4.47 µM (inactive).

`COc1cc2c[n+](C)c3c4cc(OC)c(OCc5ccccc5)cc4c(OCc4ccccc4)cc3c2cc1OC`: the GI50 was 33 µM (inactive) in experiment [1]; 3.44 µM (inactive) in [2]; 4.68 µM (inactive) in experiment [3]; 1.4 µM (inactive) in experiment [4]; 4.11 µM (inactive) in experiment [5]; 1.69 µM (inactive) in [6]. In addition, the GI50 was 1.84 µM (inactive) in experiment [7]; 97.9 µM in [8]; 2.57 µM (inactive) in experiment [9]; 13.8 µM (inactive) in experiment [10]; 6.85 µM (inactive) in experiment [11]; 11.7 µM (inactive) in experiment [12]. The GI50 in experiment [13] is 4.46 µM (inactive); in experiment [14] it was 30 µM (inactive); in experiment [15], 5.22 µM (inactive); in experiment [16] it was 5.68 µM (inactive); in [17] it was 25.7 µM (inactive); in experiment [18] it was 5.58 µM (inactive). Besides, in experiment [19], the GI50 was 48 µM (inactive).

On to `CC(=O)Nc1ccc(/N=C2\C(c3ccccc3)=C(SC3=C(c4ccccc4)/C(=N\c4ccc(NC(C)=O)cc4)c4ccccc43)c3ccccc32)cc1`, for which the GI50 in experiment [1] was 26.7 µM (inactive); in experiment [2] it was 33.8 µM (inactive); in [3] it was 24.7 µM (inactive); in [4], 23.8 µM (inactive); in [5] it was 29.6 µM (inactive); in experiment [6], 32.1 µM (inactive). In addition, the GI50 is 27 µM (inactive) in experiment [7]; 44.5 µM in experiment [8]; < 0.01 µM (active) in [9]; 29.7 µM (inactive) in [10]; 29.6 µM (inactive) in experiment [11]; 26.7 µM (inactive) in [12]. For the same molecule, the GI50 is 23.2 µM (inactive) in experiment [13]; 37.2 µM (inactive) in [14]; 12.9 µM (inactive) in experiment [15]; 35.8 µM (inactive) in experiment [16]; 19.4 µM (inactive) in experiment [17]; 31.3 µM (inactive) in experiment [18]. Moreover, the GI50 in experiment [19] was 20.6 µM (inactive).

For the molecule `COc1ccc2c(c1OC)C(=O)O[C@@H]2[C@H]1c2c(cc3c(c2OC)OCO3)CCN1C` [NOSCAPINE], the GI50 is 39.9 µM (inactive) in experiment [1]; 71.8 µM (inactive) in experiment [2]; 12.9 µM (inactive) in [3]; 38.8 µM (inactive) in experiment [4]; > 100 µM (inactive) in [5]; 62.7 µM (inactive) in experiment [6]. Besides, the GI50 in experiment [7] is > 100 µM (inactive); in experiment [8] it was 43.4 µM; in experiment [9], 30.8 µM (inactive); in experiment [10], 71.4 µM (inactive); in experiment [11], 63.5 µM (inactive); in experiment [12], 79.4 µM (inactive). For the same molecule, the GI50 is 4.86 µM (inactive) in experiment [13]; 72.9 µM (inactive) in [14]; > 100 µM (inactive) in experiment [15]; 73.1 µM (inactive) in [16]; 23.3 µM (inactive) in experiment [17]; 79.1 µM (inactive) in experiment [18]. Further, the GI50 in experiment [19] is > 100 µM (inactive).

Consider `CCCCCCCCCCCCCC/C(C(=O)O)=C(\C)C(=O)O`, for which the GI50 is > 100 µM (inactive) in experiment [1]; > 100 µM (inactive) in experiment [2]; > 100 µM (inactive) in experiment [3]; 41.5 µM (inactive) in [4]; > 100 µM (inactive) in experiment [5]; > 100 µM (inactive) in experiment [6]. In addition, the GI50 was > 100 µM (inactive) in [7]; over 100 µM in experiment [8]; > 100 µM (inactive) in experiment [9]; > 100 µM (inactive) in experiment [10]; > 100 µM (inactive) in [11]; > 100 µM (inactive) in experiment [12]. In addition, the GI50 in experiment [13] was > 100 µM (inactive); in [14], > 100 µM (inactive); in experiment [15], > 100 µM (inactive); in [16], > 100 µM (inactive); in experiment [17], 40.4 µM (inactive); in experiment [18], > 100 µM (inactive). Besides, in [19], the GI50 is > 100 µM (inactive).

Turning to `COc1cccc(CCNc2c(C#N)c3nc4ccccc4n3c3ccccc23)c1`, the GI50 in experiment [1] is 0.378 µM (active); in experiment [2], 2.06 µM (inactive); in experiment [3], 0.736 µM (active); in experiment [4] it was 0.177 µM (active); in experiment [5], 2.79 µM (inactive); in [6], 0.433 µM (active). In addition, the GI50 was 29.6 µM (inactive) in experiment [7]; 0.423 µM in experiment [8]; 0.548 µM (active) in [9]; 10.5 µM (inactive) in [10]; 0.807 µM (active) in experiment [11]; 0.643 µM (active) in experiment [12]. The GI50 in experiment [13] is 0.404 µM (active); in experiment [14], 1.33 µM (inactive); in experiment [15], 2.17 µM (inactive); in [16], 1.18 µM (inactive); in experiment [17] it was 0.426 µM (active); in [18], 0.741 µM (active). Further, the GI50 in [19] was 0.592 µM (active).

`COC(=O)C1OC(O[C@H]2CC[C@]3(C)[C@H]4CC=C5[C@@H]6CC(C)(C)CC[C@]6(C(=O)OC6OCC(O)C(O)C6OC6OC(C)C(OC7OCC(OC8OCC(O)C(O)C8O)C(O)C7O)C(O)C6O)[C@H](O)C[C@@]5(C)[C@]4(C)CC[C@H]3C2(C)C)C(O)C(O)C1O` (stereo not given in full): the GI50 in experiment [1] was 16 µM (inactive); in experiment [2] it was 4.72 µM (inactive); in [3], 17.3 µM (inactive); in [4] it was 3.05 µM (inactive); in experiment [5], 9.31 µM (inactive); in experiment [6] it was 4.57 µM (inactive). Besides, the GI50 in experiment [7] was 1.91 µM (inactive); in experiment [8] it was 10.6 µM; in [9], 11.4 µM (inactive); in experiment [10] it was 5.33 µM (inactive); in [11] it was 5.27 µM (inactive); in experiment [12], 1.63 µM (inactive). Besides, the GI50 is 3.44 µM (inactive) in experiment [13]; 2.93 µM (inactive) in experiment [14]; 1.43 µM (inactive) in [15]; 14.9 µM (inactive) in experiment [16]; 5.5 µM (inactive) in experiment [17]; 2.43 µM (inactive) in experiment [18]. The GI50 in experiment [19] is 2.03 µM (inactive).

Values taken from ChEMBL document CHEMBL1201862, “PubChem BioAssay data set” (2004).
